Consider one compound from paper PMC11219860, “A chemogenetic approach for dopamine imaging with tunable sensitivity” (Nature Communications, 2024).

For assay [1], the system named is DRD1-MSNs. Description: Whole-cell electrophysiology of DRD1-MSNs in dorsal striatum brain slices. Type of assay: cell-based, mouse. The protocol: For experiments involving SKF38393 application, to identify DRD1 receptor (DRD1)-positive neurons in the dorsal striatum, DRD1:cre mice injected with AAV5-hSyn-dlox-ChrimsonR-tdTomato were used. 3–4 weeks after viral injection, mice were anesthetized with 5% isoflurane and euthanized by decapitation. […] Slices were kept at 34 °C for 10–20 minutes and then at room temperature until recordings. In the recording chamber, slices were superfused with ACSF at 30–32 °C. Patch pipettes (3–7 MΩ) were pulled from borosilicate glass pipettes (GC150T-10, Harvard Apparatus). The internal solution contained (in mM): potassium gluconate 130, MgCl2 4, MgATP 3.4, Na3GTP 0.1, creatine phosphate 10, HEPES 5, and EGTA 1.1. The membrane potential was measured using EPC 10 USB Patch Clamp Amplifiers (HEKA). The access resistance was monitored by a hyperpolarizing step of −10 mV. The identification of DRD1-positive neurons was performed by the presence of red fluorescence protein and photo-evoked current or potential (@2 Hz, 10 ms duration, 2 pulses or 500 ms continuous pulse. light source: Colibri 7, Zeiss; 630 nm wavelength, 1 mW). To assess the excitability of neurons, positive currents were injected (0–500 pA) and the number of action potentials was counted at each current step. To measure input resistance, negative currents were injected (−200 to 0 pA, every 50 pA, 500 ms), as previously described. The resting membrane potential was measured at 0 pA current input.
Action potentials were evoked by current injection (50–500 pA, 500 ms) in current-clamped neurons. Neurons were recorded from in the presence of picrotoxin (100 µM), CGP55485 (0.3 µM), DNQX (10 µM), and MK801 (10 µM) to block GABAA, GABAB, AMPA and NMDA receptors, respectively. DA (10 µM) was applied to brain slices in the presence of cocaine (5 µM) to prevent reuptake.

Assay [2] relates to dLight1.3b. Put plainly: Two-photon dLight1.3b imaging in acute brain slices. Set-up: species or system mouse. The protocol:
Coronal brain slices (240 µm) containing the striatum and PFC were prepared from AAV-injected mice after 3–4 weeks of viral expression. Briefly, mice were deeply anesthetized with isoflurane and trans-cardially perfused with ice-cold cutting solution containing (in mM): 75 NaCl, 50 sucrose, 6 MgCl2, 2.5 KCl, 1.2 NaH2PO4, 0.1 CaCl2, 25 NaHCO3, and 2.5 D-glucose (bubbled with 5% CO2 in O2). The brain was quickly removed and sectioned using a vibrating blade microtome (VT1200S; Leica) before slices were transferred to an incubation chamber filled with artificial cerebrospinal fluid (ACSF) containing (in mM): 126 NaCl, 2.5 KCl, 1.2 MgCl2, 1.2 NaH2PO4, 2.5 CaCl2, 21.4 NaHCO3, 11.1 D-glucose and 10 µM MK-801 (34 °C, bubbled with 5% CO2 in O2, pH 7.4). After 45 min equilibration, slices were individually transferred to a recording chamber for 2 P imaging. NMDA, AMPA, GABA-A, nicotinic, and muscarinic receptors were blocked using 10 µM MK801, 10 µM DNQX, 100 µM picrotoxin, 1 µM DHBE, and 0.3 µM scopolamine, respectively. Changes of dLight fluorescence were measured by 2 P laser scanning microscopy, using a custom-built BX51WI microscope (Olympus). Excitation (920 nm) was provided by a pulsed Ti:Sapphire laser (Chameleon Ultra I; Coherent) and scanned using a pair of X-Y galvanometer mirrors (6215; Cambridge Technology). Emission was collected by a water immersion objective (60x, N.A. 1.00; Olympus) and filtered (ET680sp and ET525/50m-2P; Chroma) before detection by GaAsP photomultiplier tube (PMT, H10770PA-40; Hamamatsu). The temporal kinetics of fluorescence changes were captured using fast acquisition speed (2 kHz), ‘spot photometry’ (Toronado; B.W. Strowbridge), by scanning the laser around a circular path ([…] diameter) centered at the tip of the stimulating electrode or iontophoresis pipette which was visualized in the red channel (ET620/60 m; Chroma). The spatial dynamics of dLight fluorescence were captured by rasterized movie acquisition (30 × 40 µm, 3 Hz) and analyzed using ImageJ. Exogenous DA was applied by iontophoresis, using a thin-walled glass pipette filled with DA (1 M) and sulforhodamine 101 (300 µM), and ejected by short pulses of positive current ( + 20 to +200 nA, 5 ms) with a negative retention current to prevent DA leakage (−10 to −15 nA). Endogenous DA release was evoked by electrical stimulation using a double-tipped electrode pulled from septum theta glass capillaries (WPI), visualized with sulforhodamine 101 (10 µM). A single pulse (10 µA, 0.5 ms) was used to evoke DA release in striatal slices, while a train of stimuli (5 × 20 µA at 25 Hz) was used in cortical slices. Changes of fluorescence are expressed as ∆F/F0, wherein baseline fluorescence (F0) was measured from the 300 ms before DA stimulation in spot photometry measurements, or defined as the average of 10 frames preceding stimulation in rasterized movies. Peak ∆F/F0 was calculated by maximum peak detection from the time period following stimulation ( ~ 500 ms) or from the rasterized frame immediately following stimulation. Data were analyzed in AxoGraph (J. Clements) and ImageJ.

With `C[C@H]1c2cccc(C(C)(C)O)c2C[C@H](CO)N1C(=O)Cc1c(Cl)cccc1Cl` [DETQ, 2-(2,6-dichlorophenyl)-1-((1S,3R)-3-(hydroxymethyl)-5-(2-hydroxypropan-2-yl)-1-methyl-3,4-dihydroisoquinolin-2(1H)-yl)ethan-1-one], the “number of action potentials: DA with versus without DETQ” value in assay [1] (DA 10 µM, DETQ 200 nM) was “no significant difference”. Moreover, the “resting membrane potential or excitability of DRD1-MSNs” value in assay [1] (DETQ 200 nM superfusion) was “No noticeable changes”. For the same compound, in assay [2] (5 × 20 µA, 0.5 ms, 25 Hz, DETQ), the “fluorescence changes evoked by train of stimuli in PFC slices” value is “unmask small increases”. The “area of dLight1.3b ∆F/F0 >2σ noise” value in assay [2] (DA iontophoresis 20 nA, DETQ 200 nM) is on record as “significantly increased”. Besides, the “peak ∆F/F0 and area (>2σ noise) evoked by single electrical stimulation” value in assay [2] (dorsal striatum slices, 10 µA, 0.5 ms, DETQ) is listed as “significantly enhanced”. For the same compound, in assay [2] (ejection current 50 nA, DETQ 200 nM), the “decay time of fluorescence changes (spot photometry)” value was “slowed”. For the same compound, the “increase of dLight sensitivity (peak ∆F/F0 over ejection currents)” value in assay [2] (striatal slices, DA iontophoresis, DETQ 200 nM) is given as 2.6 fold.
